# Experimental data published in patent publication US20190358181A1, “METHODS FOR AUTISM SPECTRUM DISORDER PHARMACOTHERAPY” (priority 2017, published 2019).
# Tested on: 610 metabolites from 63 biochemical pathways
# Test: Targeted broad-spectrum plasma metabolomic analysis (LC-MS/MS), paired pre-infusion vs post-infusion (2-days and 6-weeks)
# Type: in vivo, human
# Settings: for Linear Ratio / VIP Score / Z Abs / Z Score: plasma
# Protocol: Targeted, broad-spectrum, plasma metabolomic analysis of 610 metabolites from 63 biochemical pathways was performed by high performance liquid chromatography and tandem mass spectrometry (LC-MS/MS) on the samples collected from patients in Example 1. Venous blood was collected between the hours of 8 am and 5 pm, at least 3 hours after the last meal, into lithium-heparin vacutainer tubes (BD #367884). Plasma was separated by centrifugation at 900 g×10 minutes at room temperature within one hour of collection. The resulting fresh lithium-heparin plasma was transferred to labeled 1.2 ml or 2.0 ml externally threaded cryotubes with a minimum headspace air gap for storage at −80° C. for analysis. Samples were analyzed on an AB SCIEX QTRAP 5500 triple quadrupole mass spectrometer equipped with a Turbo V electrospray ionization (ESI) source, Shimadzu LC-20A UHPLC system, and a PAL CTC autosampler. Typically, 90 μl of plasma was thawed on ice and transferred to a 1.7 ml Eppendorf tube. Five (5.0) μl of a cocktail containing 25-35 commercial stable isotope internal standards, and 5.0 μl of 57 stable isotope internal standards that were custom-synthesized in E. coli NCM3722, Caenorhabditis elegans N2, and Komagataella phaffii (ATCC 76273; formerly known as Pichia pastoris) by metabolic labeling with 13C-glucose and 13C-bicarbonate, were added, mixed, and incubated for 10 min at 20° C. to permit small molecules and vitamins in the internal standards to associate with plasma binding proteins. Macromolecules (protein, DNA, RNA, glycans, etc.) were precipitated by extraction with 4 volumes (400 μl) of cold (−20° C.), acetonitrile:methanol (50:50) (LCMS grade, Cat #LC015-2.5 and GC230-4, Burdick & Jackson, Honeywell), vortexed vigorously, and incubated on crushed ice for 10 min, then removed by centrifugation at 16,000 g×10 min at 4° C. The supernatants containing the extracted metabolites and internal standards in the resulting 40:40:20 solvent mix of acetonitrile:methanol:water were transferred to labeled cryotubes and stored at −80° C. for LCMS/MS analysis.
# LC-MS/MS analysis was performed by scheduled multiple reaction monitoring (sMRM) under Analyst v1.6.2 software control in both negative and positive mode with rapid polarity switching (50 ms). Nitrogen was used for curtain gas (set to 30), collision gas (set to high), ion source gas 1 and 2 (set to 35). The source temperature was 500° C. Spray voltage was set to −4500 V in negative mode and 5500 V in positive mode. The values for Q1 and Q3 mass-to-charge ratios (m/z), declustering potential (DP), entrance potential (EP), collision energy (CE), and collision cell exit potential (CXP) were determined and optimized for each MRM for each metabolite. Ten microliters of extract was injected by PAL CTC autosampler via a 10 μl stainless steel loop into a 250 mm×2.0 mm, 4 μm polymer based NH2 HPLC column (Asahipak NH2P-40 2E, Showa Denko America, Inc., NY) held at 25° C. for chromatographic separation. The mobile phase was solvent A: 95% water with 20 mM (NH4)2CO3 (Sigma, Fluka Cat #74415-250G-F), 5% acetonitrile, and 38 mM NH4OH (Sigma, Fluka Cat #17837-100ML), final pH 9.75; solvent B: 100% acetonitrile. Separation was achieved using the following gradient: 0-3.5 min: 95% B, 3.6-8 min: 85% B, 8.1-13 min: 75% B, 13.5-35 min: 0% B, 36-46 min: 95% B, 46.1 min: end. The flow rate was 200 μl/min. Pump pressures ranged from 920-2600 psi over the course of the gradient. All the samples were kept at 4° C. during analysis. The chromatographic peaks were identified using MultiQuant (v3.0, Sciex), confirmed by manual inspection, and the peak areas integrated. […]
# [1] = 1-Carbon, Folate, Formate, Glycine, Serine Metabolism, 6-weeks
# [2] = 1-Pyrroline-5-carboxylic acid, 6-weeks
# [3] = 2-Hydroxyisocaproic acid, 6-weeks
# [4] = 2-Hydroxyisovaleric acid, 6-weeks
# [5] = 3-Hydroxy-cis-5-tetradecenoylcarnitine, 6-weeks
# [6] = 4-Hydroxyphenyllactic acid, 6-weeks
# [7] = Amino Acid Metabolism (not otherwise covered), 6-weeks
# [8] = Amino-Sugar, Galactose, & Non-Glucose Metabolism, 6-weeks
# [9] = Amino-Sugar, Galactose, & Non-Glucose, 2-days
# [10] = Bioamines and Neurotransmitter Metabolism, 2-days
smiles,measurement,setting,value
"Cc1ccc(C(=O)Nc2ccc(S(=O)(=O)O)c3cc(S(=O)(=O)O)cc(S(=O)(=O)O)c23)cc1NC(=O)c1cccc(NC(=O)Nc2cccc(C(=O)Nc3cc(C(=O)Nc4ccc(S(=O)(=O)O)c5cc(S(=O)(=O)O)cc(S(=O)(=O)O)c45)ccc3C)c2)c1 [Suramin, suramin]",Decreased,[1],0
same,Fold Enrichment (Obs/Exp),[1],3.6
same,Fraction of Impact (VIP Score) Explained (% of 94.6),[1],4%
same,Impact (Sum VIP Score),[1],4.0
same,Increased,[1],2
same,Observed Hits in the Top 48 Metabolites,[1],2
same,Linear Ratio,"1-Methyladenine, 6-weeks",2.287
same,VIP Score,"1-Methyladenine, 6-weeks",2.459
same,Z Abs,"1-Methyladenine, 6-weeks",2.259
same,Z Score,"1-Methyladenine, 6-weeks",2.259
same,Linear Ratio,[2],1.299
same,VIP Score,[2],2.358
same,Z Abs,[2],1.922
same,Z Score,[2],1.922
same,Linear Ratio,[3],1.306
same,VIP Score,[3],1.622
same,Z Abs,[3],0.997
same,Z Score,[3],0.997
same,Linear Ratio,[4],1.234
same,VIP Score,[4],1.988
same,Z Abs,[4],1.146
same,Z Score,[4],1.146
same,Linear Ratio,"2-Keto-L-gluconate, 6-weeks",1.239
same,VIP Score,"2-Keto-L-gluconate, 6-weeks",2.686
same,Z Abs,"2-Keto-L-gluconate, 6-weeks",2.365
same,Z Score,"2-Keto-L-gluconate, 6-weeks",2.365
same,biochemical pathways changed by suramin,2-days after the infusion,28
same,Linear Ratio,[5],0.734
same,VIP Score,[5],1.612
same,Z Abs,[5],1.056
same,Z Score,[5],−1.056
same,Linear Ratio,[6],1.294
same,VIP Score,[6],1.945
same,Z Abs,[6],1.172
same,Z Score,[6],1.172
same,pathways changed at 2-days that remained changed,6-week time point,79%
same,metabolites significantly changed by suramin (total),6-weeks,48
same,Linear Ratio,"Alanine, 6-weeks",1.322
same,VIP Score,"Alanine, 6-weeks",2.456
same,Z Abs,"Alanine, 6-weeks",1.687
same,Z Score,"Alanine, 6-weeks",1.687
same,Linear Ratio,"Allantoin, 6-weeks",1.798
same,VIP Score,"Allantoin, 6-weeks",1.882
same,Z Abs,"Allantoin, 6-weeks",1.068
same,Z Score,"Allantoin, 6-weeks",1.068
same,Decreased,[7],0
same,Fold Enrichment (Obs/Exp),[7],4.5
same,Fraction of Impact (VIP Score) Explained (% of 94.6),[7],5%
same,Impact (Sum VIP Score),[7],4.3
same,Increased,[7],2
same,Observed Hits in the Top 48 Metabolites,[7],2
same,Decreased,"Amino Acid Metabolism, 2-days",0
same,Fold Enrichment (Obs/Exp),"Amino Acid Metabolism, 2-days",1.8
same,Fraction of Impact (VIP Score) Explained (% of 119.7),"Amino Acid Metabolism, 2-days",1%
same,Impact (Sum VIP Score),"Amino Acid Metabolism, 2-days",1.8
same,Increased,"Amino Acid Metabolism, 2-days",1
same,Observed Hits in the Top 61 Metabolites,"Amino Acid Metabolism, 2-days",1
same,Decreased,[8],0
same,Fold Enrichment (Obs/Exp),[8],1.8
same,Fraction of Impact (VIP Score) Explained (% of 94.6),[8],2%
same,Impact (Sum VIP Score),[8],1.9
same,Increased,[8],1
same,Observed Hits in the Top 48 Metabolites,[8],1
same,Decreased,[9],0
same,Fold Enrichment (Obs/Exp),[9],1.4
same,Fraction of Impact (VIP Score) Explained (% of 119.7),[9],1%
same,Impact (Sum VIP Score),[9],1.6
same,Increased,[9],1
same,Observed Hits in the Top 61 Metabolites,[9],1
same,Linear Ratio,"Azelaic acid, 6-weeks",1.120
same,VIP Score,"Azelaic acid, 6-weeks",2.151
same,Z Abs,"Azelaic acid, 6-weeks",2.558
same,Z Score,"Azelaic acid, 6-weeks",2.558
same,Decreased,"Bile Acid Metabolism, 6-weeks",0
same,Fold Enrichment (Obs/Exp),"Bile Acid Metabolism, 6-weeks",4.5
same,Fraction of Impact (VIP Score) Explained (% of 94.6),"Bile Acid Metabolism, 6-weeks",6%
same,Impact (Sum VIP Score),"Bile Acid Metabolism, 6-weeks",5.7
same,Increased,"Bile Acid Metabolism, 6-weeks",3
same,Observed Hits in the Top 48 Metabolites,"Bile Acid Metabolism, 6-weeks",3
same,Decreased,"Bile Salt Metabolism, 2-days",0
same,Fold Enrichment (Obs/Exp),"Bile Salt Metabolism, 2-days",4.7
same,Fraction of Impact (VIP Score) Explained (% of 119.7),"Bile Salt Metabolism, 2-days",10%
same,Impact (Sum VIP Score),"Bile Salt Metabolism, 2-days",11.9
same,Increased,"Bile Salt Metabolism, 2-days",4
same,Observed Hits in the Top 61 Metabolites,"Bile Salt Metabolism, 2-days",4
same,Decreased,[10],2
same,Fold Enrichment (Obs/Exp),[10],1.6
same,Fraction of Impact (VIP Score) Explained (% of 119.7),[10],3%
same,Impact (Sum VIP Score),[10],3.3
same,Increased,[10],0
same,Observed Hits in the Top 61 Metabolites,[10],2
same,Decreased,"Branch Chain Amino Acid Metabolism, 2-days",0
